Measured values: US20230233569A1 (Revolution Medicines, Inc., priority 2020, published 2023)
Values joined by “and” are separate entries in the source; they are usually repeats but may differ in a detail not shown here. Equal values may be shown once. Read-outs that look alike come from different tables or passages of the source.

Experiments:
KRAS G13C = KRAS G13C (Homo sapiens, UniProt P01116+P62937, G13C); experiment: Disruption of BRAF RBD interaction with Ras (FRET / MOA assay, with Cyclophilin A); format: biochemical
How it was run: (§1)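 TR-FRET: nucleotide-loaded K-Ras mutant or WT with Cyclophilin A and BRAF RBD, compound 10-point 3-fold from 30 μM final, 3 h at 25° C, then anti-His Eu (10 nM) and anti-GST APC (50 nM) for 1.5 h. Decreased FRET ratio versus DMSO gives IC50.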

KRAS G13D = KRAS G13D (Homo sapiens, UniProt P01116+P62937, G13D); experiment: as above; format: biochemical
How it was run: as §1

KRAS G12S = KRAS G12S (Homo sapiens, UniProt P01116+P62937, G12S); experiment: as above; format: biochemical
How it was run: as §1

KRAS WT = KRAS WT (Homo sapiens, UniProt P01116+P62937); experiment: as above; format: biochemical
How it was run: as §1

NRAS G12C = NRAS G12C (Homo sapiens, UniProt P01111+P62937, G12C); experiment: as above; format: biochemical
KRAS G12C = KRAS G12C (Homo sapiens, UniProt P01116+P62937, G12C); experiment: as above; format: biochemical
How it was run: as §1

KRAS G12D = KRAS G12D (Homo sapiens, UniProt P01116+P62937, G12D); experiment: as above; format: biochemical
How it was run: as §1

KRAS G12V = KRAS G12V (Homo sapiens, UniProt P01116+P62937, G12V); experiment: as above; format: biochemical
How it was run: as §1

Capan-1 (K-Ras G12V) = experiment: CellTiter-Glo cell viability assay, 5-day treatment; format: cell-based; conditions: Homo sapiens, CAPAN-1, 120 h, 5-day treatment; read-out: Capan-1 Cell Viability assay data (K-Ras G12V, IC50)
How it was run: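 Five-day compound treatment of plated cells; luminescent read after ~30 min at RT. Percent-of-DMSO data fit to a four-parameter logistic model.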

[1] = read-out: KRAS G13C FRET data, IC50
[2] = KRAS G13D, read-out: KRAS G13D FRET data IC50
[3] = read-out: KRAS G12S FRET data, IC50
[4] = KRAS WT, read-out: KRAS WT FRET data IC50
[5] = NRAS G12C, read-out: NRAS G12C FRET data IC50
[6] = read-out: KRAS G12C FRET data, IC50
[7] = read-out: KRAS G12D FRET data, IC50
[8] = KRAS G12V, read-out: KRAS G12V FRET data IC50
[9] = KRAS G13D FRET data IC50, KRAS G13D
[10] = KRAS WT FRET data IC50, KRAS WT
[11] = NRAS G12C FRET data IC50, NRAS G12C
[12] = KRAS G12V FRET data IC50, KRAS G12V

Chain of KRAS G12V (P01116 1-169 isoform P01116-2 G12V limits assumed): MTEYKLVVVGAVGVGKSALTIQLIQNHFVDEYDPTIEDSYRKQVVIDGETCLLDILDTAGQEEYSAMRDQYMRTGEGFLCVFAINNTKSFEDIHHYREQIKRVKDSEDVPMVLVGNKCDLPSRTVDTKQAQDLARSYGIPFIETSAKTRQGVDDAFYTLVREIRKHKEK
Chain of KRAS G12V (P62937 whole entry): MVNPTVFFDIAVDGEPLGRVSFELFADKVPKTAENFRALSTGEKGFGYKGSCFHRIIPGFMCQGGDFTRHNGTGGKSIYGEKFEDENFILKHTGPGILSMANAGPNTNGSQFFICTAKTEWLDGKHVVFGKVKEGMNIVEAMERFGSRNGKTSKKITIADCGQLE
Chain of KRAS G12S (P01116 1-169 isoform P01116-2 G12S limits assumed): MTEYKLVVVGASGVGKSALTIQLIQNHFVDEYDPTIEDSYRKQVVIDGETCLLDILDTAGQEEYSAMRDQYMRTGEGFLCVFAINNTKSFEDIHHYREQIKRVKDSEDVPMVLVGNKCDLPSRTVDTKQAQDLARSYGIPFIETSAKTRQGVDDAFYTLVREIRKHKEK
Chain of KRAS G12S (P62937 whole entry): as the sequence (P62937 whole entry) above
Chain of KRAS G13D (P01116 1-169 isoform P01116-2 G13D limits assumed): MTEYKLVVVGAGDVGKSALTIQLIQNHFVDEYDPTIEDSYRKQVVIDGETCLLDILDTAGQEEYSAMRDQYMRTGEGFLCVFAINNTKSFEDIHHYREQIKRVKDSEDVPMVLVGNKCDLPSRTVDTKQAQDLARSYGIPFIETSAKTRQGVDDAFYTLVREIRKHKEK
Chain of KRAS G13D (P62937 whole entry): as the sequence (P62937 whole entry) above
Chain of KRAS WT (P01116 1-169 isoform P01116-2 limits assumed): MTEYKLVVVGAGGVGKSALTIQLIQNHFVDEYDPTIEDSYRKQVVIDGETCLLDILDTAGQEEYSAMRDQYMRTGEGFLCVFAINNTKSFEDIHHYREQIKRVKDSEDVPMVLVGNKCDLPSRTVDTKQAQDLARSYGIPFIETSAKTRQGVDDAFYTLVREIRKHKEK
Chain of KRAS WT (P62937 whole entry): as the sequence (P62937 whole entry) above
Chain of KRAS G12C (P01116 1-169 isoform P01116-2 G12C): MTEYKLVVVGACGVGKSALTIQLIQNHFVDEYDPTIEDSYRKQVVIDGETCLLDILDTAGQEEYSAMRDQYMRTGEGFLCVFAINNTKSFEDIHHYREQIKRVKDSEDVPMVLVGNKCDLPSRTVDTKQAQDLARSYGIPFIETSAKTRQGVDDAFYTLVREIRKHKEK
Chain of KRAS G12C (P62937 whole entry): as the sequence (P62937 whole entry) above
Chain of KRAS G12D (P01116 1-169 isoform P01116-2 G12D limits assumed): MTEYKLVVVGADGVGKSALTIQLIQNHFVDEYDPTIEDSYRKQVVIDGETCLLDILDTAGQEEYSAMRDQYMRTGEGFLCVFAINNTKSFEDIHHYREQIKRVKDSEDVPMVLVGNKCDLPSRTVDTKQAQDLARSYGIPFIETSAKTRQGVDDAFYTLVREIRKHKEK
Chain of KRAS G12D (P62937 whole entry): as the sequence (P62937 whole entry) above
Chain of NRAS G12C (P01111 whole entry G12C): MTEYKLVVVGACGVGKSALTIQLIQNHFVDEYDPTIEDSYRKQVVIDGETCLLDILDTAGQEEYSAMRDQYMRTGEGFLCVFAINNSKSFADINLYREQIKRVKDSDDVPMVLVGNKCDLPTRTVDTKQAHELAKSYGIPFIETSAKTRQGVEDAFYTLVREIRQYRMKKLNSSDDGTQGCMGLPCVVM
Chain of NRAS G12C (P62937 whole entry): as the sequence (P62937 whole entry) above
Chain of KRAS G13C (P01116 1-169 isoform P01116-2 G13C): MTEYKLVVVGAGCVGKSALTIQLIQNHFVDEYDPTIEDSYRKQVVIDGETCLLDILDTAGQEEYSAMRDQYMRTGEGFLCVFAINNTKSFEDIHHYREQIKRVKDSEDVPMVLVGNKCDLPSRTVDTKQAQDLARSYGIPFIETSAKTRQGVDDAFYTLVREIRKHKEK
Chain of KRAS G13C (P62937 whole entry): as the sequence (P62937 whole entry) above

| IC50 (KRAS G13C; KRAS G13C FRET data, IC50) | IC50 (KRAS G13D; [9]) | IC50 (KRAS G12S; KRAS G12S FRET data, IC50) | IC50 (KRAS WT; [10]) | IC50 (NRAS G12C; [11]) | IC50 (KRAS G12C; KRAS G12C FRET data, IC50) | IC50 (KRAS G12D; KRAS G12D FRET data, IC50) | IC50 (KRAS G12V; [12]) | SMILES | IC50 (KRAS G13C; [1]) | IC50 (KRAS G13D; [2]) | IC50 (KRAS G12S; [3]) | IC50 (KRAS WT; [4]) | IC50 (NRAS G12C; [5]) | IC50 (KRAS G12C; [6]) | IC50 (KRAS G12D; [7]) | IC50 (KRAS G12V; [8]) | IC50 (Capan-1 (K-Ras G12V)) |
| --- | --- | --- | --- | --- | --- | --- | --- | --- | --- | --- | --- | --- | --- | --- | --- | --- | --- |
| – | – | – | – | – | – | – | – | CCn1c(-c2cccnc2[C@@H]2CCCO2)c2c3cc(ccc31)-c1csc(n1)C[C@H](NC(=O)[C@H](C(C)C)N(C)C(=O)N1CC(N(C)C)C1)C(=O)N1CCC[C@H](N1)C(=O)OCC(C)(C)C2 (atropisomer, axis not shown) [Example A327] | > 10 µM | > 10 µM | > 10 µM | > 10 µM | > 10 µM | > 10 µM | > 10 µM | > 10 µM | 1 to 10 µM |
| – | – | – | – | – | – | – | – | CCn1c(-c2cccnc2[C@H](C)OC)c2c3cc(ccc31)-c1cc(O)cc(c1)C[C@H](NC(=O)[C@@H](NC(C)=O)C(C)(C)OC)C(=O)N1CCC[C@H](N1)C(=O)OCC(C)(C)C2 (racemic) [Example A172] | 1 to 10 µM | > 10 µM | > 10 µM | > 10 µM | > 10 µM | > 10 µM | > 10 µM | > 10 µM | > 10 µM |
| – | – | – | – | – | – | – | – | CCn1c(-c2cccnc2[C@H](C)OC)c2c3cc(ccc31)-c1cc(O)cc(c1)C[C@H](NS(=O)(=O)CC1OCCC13CNC3)C(=O)N1CCC[C@H](N1)C(=O)OCC(C)(C)C2 (mixture of isomers) [Example A187] | > 10 µM | > 10 µM | > 10 µM | > 10 µM | > 10 µM | > 10 µM | > 10 µM | > 10 µM | > 10 µM |
| – | – | – | – | – | – | – | – | CCn1c(-c2cccnc2[C@H](C)OC)c2c3cc(ccc31)-c1cc(O)cc(c1)C[C@H](NS(=O)(=O)CCN(C)C)C(=O)N1CCC[C@H](N1)C(=O)OCC(C)(C)C2 (racemic) [Example A190] | > 10 µM | > 10 µM | > 10 µM | > 10 µM | > 10 µM | > 10 µM | > 10 µM | > 10 µM | > 10 µM |
| – | – | – | – | – | – | – | – | CCn1c(-c2cccnc2[C@H](C)OC)c2c3cc(ccc31)-c1cc(O)cc(c1)C[C@H](NS(=O)(=O)c1cnc[nH]1)C(=O)N1CCC[C@H](N1)C(=O)OCC(C)(C)C2 (racemic) [Example A192] | > 10 µM | > 10 µM | > 10 µM | > 10 µM | > 10 µM | > 10 µM | > 10 µM | > 10 µM | > 10 µM |
| 0.1 to 1 µM and 0.01 to 0.1 µM | 0.1 to 1 µM and 0.01 to 0.1 µM | 1 to 10 µM and 0.01 to 0.1 µM | 1 to 10 µM and 0.01 to 0.1 µM | 1 to 10 µM and 0.01 to 0.1 µM | 0.1 to 1 µM and 0.01 to 0.1 µM | 1 to 10 µM and 0.01 to 0.1 µM | 0.1 to 1 µM and > 10 µM | CCn1c(-c2cccnc2[C@H](C)OC)c2c3cc(ccc31)-c1cc(O)cc(c1)C[C@H](NC(=O)[C@H](C(C)C)N(C)C(=O)[C@H]1CCNC1)C(=O)N1CCC[C@H](N1)C(=O)OCC(C)(C)C2 [Example A4] | – | – | – | – | – | – | – | – | > 10 µM |
| – | – | – | – | – | – | – | – | CCn1c(-c2cnccc2COC)c2c3cc(ccc31)-c1cc(O)cc(c1)C[C@H](NC(=O)[C@H]([C@@H](C)OC)N(C)C(C)=O)C(=O)N1CCC[C@H](N1)C(=O)OCC(C)(C)C2 [Example A76] | 0.1 to 1 µM | 0.1 to 1 µM | 0.1 to 1 µM | 0.1 to 1 µM | 0.1 to 1 µM | 0.1 to 1 µM | 1 to 10 µM | 0.1 to 1 µM | 1 to 10 µM |
| – | – | – | – | – | – | – | – | CCn1c(-c2cnccc2COC)c2c3cc(ccc31)-c1cc(O)cc(c1)C[C@H](NC(=O)[C@H](C(C)C)N(C)C(=O)[C@@H]1CN(C(C)=O)C[C@@H]1C(F)(F)F)C(=O)N1CCC[C@H](N1)C(=O)OCC(C)(C)C2 [Example A80] | 0.1 to 1 µM | 0.1 to 1 µM | 0.1 to 1 µM | 0.1 to 1 µM | 0.1 to 1 µM | 0.1 to 1 µM | 0.1 to 1 µM | 1 to 10 µM | 1 to 10 µM |
| 0.1 to 1 µM | 0.1 to 1 µM | 0.1 to 1 µM | 0.1 to 1 µM | 0.1 to 1 µM | 0.1 to 1 µM | 1 to 10 µM | 0.1 to 1 µM | CCn1c(-c2cnccc2COC)c2c3cc(ccc31)-c1cc(O)cc(c1)C[C@H](NC(=O)[C@H](C(C)C)N(C)C(=O)[C@H](C)O)C(=O)N1CCC[C@H](N1)C(=O)OCC(C)(C)C2 [Example A93] | – | – | – | – | – | – | – | – | 1 to 10 µM |
